Our source for the IC50, DC50 and Dmax values is patent US20250214991A1 (Oncopia Therapeutics, Inc. d/b/a/ SK Life Science Labs, priority 2022, published 2025).

The target of one assay is CRBN/DDB1 (Homo sapiens (Human), UniProt Q96SW2). Kind of assay: IC50 measurements for binding to CRBN/DDB1 (HTRF). The conditions noted are these: His tagged CRBN+DDB, Cy5-labeled Thalidomide probe, one hour. The essentials:
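Serially diluted compounds compete with a Cy5-labeled thalidomide tracer (60 nM) for His-tagged CRBN-DDB1 (2 nM), detected via anti-6His Tb cryptate (0.4 nM); buffer HEPES pH 7.5 with TCEP, Brij-35, NaCl, BSA. One-hour room-temperature incubation, HTRF signal read, IC50 by four-parameter curve.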
Background: In TR-FRET formats the signal depends on donor and acceptor labels being close together.

The target in a further assay is IKZF2 (Homo sapiens (Human), UniProt Q96SW2+Q9UKS7). As to the kind of experiment: In vitro IKZF2 HiBit Assay (HEK293T Flp-in-HiBiT cells). The class given is cell-based. The conditions noted are these: HEK293T Flp-in-HiBiT cells, 6 hrs incubation; for DC50: read-out: IKZF2 HiBit DC50; for Dmax: HEK-293T, read-out: IKZF2 HiBit Dmax (%). The essentials:
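Remaining tagged Helios was read as lytic HiBiT/LgBiT luminescence normalized to DMSO, yielding binned DC50 and Dmax values. Treatment ran 6 h, with compounds at 11 three-fold doses diluted from 1 mM and 0.1% final DMSO. The cells were HEK293T Flp-in with CRISPR knock-in of HiBiT at the IKZF2 N-terminus.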
Background: The HiBiT peptide binds its large partner to form an active luciferase.

In the next assay the target is IKZF1 (Homo sapiens (Human), UniProt Q13422+Q96SW2). Kind of assay: In vitro IKZF1 HiBit Assay (HEK293T Flp-in-HiBiT-IKZF1 stable cell line). The assay is classed as cell-based. The conditions noted are these: HEK293T Flp-in-HiBiT-IKZF1 stable cell line, 6 hrs incubation; for DC50: read-out: IKZF1 HiBit DC50; for Dmax: HEK-293T, read-out: IKZF1 HiBit Dmax (%). The method in brief: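 Degradation was measured as loss of luminescence from the HiBiT-IKZF1 tag after 6 h compound treatment, with 0.1% final DMSO, in stable HEK293T Flp-in cells. Values were normalized to DMSO, giving the 50% degradation concentration and the maximal degradation range.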
IKZF1, sequence (Q13422 whole entry): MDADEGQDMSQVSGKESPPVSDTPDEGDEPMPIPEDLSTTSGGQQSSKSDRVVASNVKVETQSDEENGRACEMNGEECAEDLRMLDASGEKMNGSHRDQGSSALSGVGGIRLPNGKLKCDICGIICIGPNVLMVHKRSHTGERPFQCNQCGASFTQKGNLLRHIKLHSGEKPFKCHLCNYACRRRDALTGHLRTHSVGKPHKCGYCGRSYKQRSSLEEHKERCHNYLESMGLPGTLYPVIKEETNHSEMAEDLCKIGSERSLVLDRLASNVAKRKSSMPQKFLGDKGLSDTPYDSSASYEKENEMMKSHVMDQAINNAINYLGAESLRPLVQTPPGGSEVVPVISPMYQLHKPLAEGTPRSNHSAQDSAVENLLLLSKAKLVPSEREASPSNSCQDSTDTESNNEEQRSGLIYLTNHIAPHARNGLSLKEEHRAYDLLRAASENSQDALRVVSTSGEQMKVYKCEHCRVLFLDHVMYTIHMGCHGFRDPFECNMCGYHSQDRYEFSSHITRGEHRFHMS
IKZF1, sequence (Q96SW2 whole entry): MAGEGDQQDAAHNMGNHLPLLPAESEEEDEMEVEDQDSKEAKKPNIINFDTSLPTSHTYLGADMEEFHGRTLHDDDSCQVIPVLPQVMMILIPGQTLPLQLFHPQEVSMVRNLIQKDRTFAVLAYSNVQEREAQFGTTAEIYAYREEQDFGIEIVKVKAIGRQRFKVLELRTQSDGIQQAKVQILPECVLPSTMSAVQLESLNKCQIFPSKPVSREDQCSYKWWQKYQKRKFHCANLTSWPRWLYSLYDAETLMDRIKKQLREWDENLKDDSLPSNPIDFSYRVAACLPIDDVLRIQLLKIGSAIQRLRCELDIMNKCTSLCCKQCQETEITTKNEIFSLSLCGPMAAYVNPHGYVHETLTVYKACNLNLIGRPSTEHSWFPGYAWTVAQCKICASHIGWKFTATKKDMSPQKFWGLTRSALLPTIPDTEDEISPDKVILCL
IKZF1, sequence (Q16531 2-1140 partner): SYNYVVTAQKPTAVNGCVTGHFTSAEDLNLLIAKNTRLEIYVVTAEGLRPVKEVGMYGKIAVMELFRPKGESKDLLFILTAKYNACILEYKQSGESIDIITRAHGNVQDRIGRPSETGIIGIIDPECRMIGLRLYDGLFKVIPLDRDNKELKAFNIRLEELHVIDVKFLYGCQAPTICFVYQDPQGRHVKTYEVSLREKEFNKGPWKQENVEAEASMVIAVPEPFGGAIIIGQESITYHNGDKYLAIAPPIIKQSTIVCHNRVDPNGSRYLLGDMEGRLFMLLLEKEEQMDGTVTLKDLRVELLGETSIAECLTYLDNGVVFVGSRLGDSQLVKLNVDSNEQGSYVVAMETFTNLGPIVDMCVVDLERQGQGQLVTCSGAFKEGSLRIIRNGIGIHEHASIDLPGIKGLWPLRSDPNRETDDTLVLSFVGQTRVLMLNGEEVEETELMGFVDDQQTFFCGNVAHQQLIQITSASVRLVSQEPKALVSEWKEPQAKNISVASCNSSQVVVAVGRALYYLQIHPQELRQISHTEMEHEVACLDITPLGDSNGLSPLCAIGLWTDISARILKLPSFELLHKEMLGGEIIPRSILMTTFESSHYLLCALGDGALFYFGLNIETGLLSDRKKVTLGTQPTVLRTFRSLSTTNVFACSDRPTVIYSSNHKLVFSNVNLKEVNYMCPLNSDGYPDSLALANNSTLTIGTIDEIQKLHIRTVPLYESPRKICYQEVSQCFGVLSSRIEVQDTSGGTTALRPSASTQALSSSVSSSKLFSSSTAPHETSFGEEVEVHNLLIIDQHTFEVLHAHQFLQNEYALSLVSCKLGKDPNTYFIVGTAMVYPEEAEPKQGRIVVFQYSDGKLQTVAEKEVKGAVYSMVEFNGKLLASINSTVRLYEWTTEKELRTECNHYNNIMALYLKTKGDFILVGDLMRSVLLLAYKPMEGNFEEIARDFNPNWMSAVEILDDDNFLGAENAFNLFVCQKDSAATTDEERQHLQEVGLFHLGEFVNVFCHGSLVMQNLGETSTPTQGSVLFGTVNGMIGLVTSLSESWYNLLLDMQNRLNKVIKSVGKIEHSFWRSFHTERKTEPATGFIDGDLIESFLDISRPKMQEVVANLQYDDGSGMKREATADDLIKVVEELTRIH

CRBN/DDB1, sequence (Q96SW2 whole entry, species assumed): as the sequence (Q96SW2 whole entry) above
CRBN/DDB1, sequence (Q16531 whole entry partner, species assumed): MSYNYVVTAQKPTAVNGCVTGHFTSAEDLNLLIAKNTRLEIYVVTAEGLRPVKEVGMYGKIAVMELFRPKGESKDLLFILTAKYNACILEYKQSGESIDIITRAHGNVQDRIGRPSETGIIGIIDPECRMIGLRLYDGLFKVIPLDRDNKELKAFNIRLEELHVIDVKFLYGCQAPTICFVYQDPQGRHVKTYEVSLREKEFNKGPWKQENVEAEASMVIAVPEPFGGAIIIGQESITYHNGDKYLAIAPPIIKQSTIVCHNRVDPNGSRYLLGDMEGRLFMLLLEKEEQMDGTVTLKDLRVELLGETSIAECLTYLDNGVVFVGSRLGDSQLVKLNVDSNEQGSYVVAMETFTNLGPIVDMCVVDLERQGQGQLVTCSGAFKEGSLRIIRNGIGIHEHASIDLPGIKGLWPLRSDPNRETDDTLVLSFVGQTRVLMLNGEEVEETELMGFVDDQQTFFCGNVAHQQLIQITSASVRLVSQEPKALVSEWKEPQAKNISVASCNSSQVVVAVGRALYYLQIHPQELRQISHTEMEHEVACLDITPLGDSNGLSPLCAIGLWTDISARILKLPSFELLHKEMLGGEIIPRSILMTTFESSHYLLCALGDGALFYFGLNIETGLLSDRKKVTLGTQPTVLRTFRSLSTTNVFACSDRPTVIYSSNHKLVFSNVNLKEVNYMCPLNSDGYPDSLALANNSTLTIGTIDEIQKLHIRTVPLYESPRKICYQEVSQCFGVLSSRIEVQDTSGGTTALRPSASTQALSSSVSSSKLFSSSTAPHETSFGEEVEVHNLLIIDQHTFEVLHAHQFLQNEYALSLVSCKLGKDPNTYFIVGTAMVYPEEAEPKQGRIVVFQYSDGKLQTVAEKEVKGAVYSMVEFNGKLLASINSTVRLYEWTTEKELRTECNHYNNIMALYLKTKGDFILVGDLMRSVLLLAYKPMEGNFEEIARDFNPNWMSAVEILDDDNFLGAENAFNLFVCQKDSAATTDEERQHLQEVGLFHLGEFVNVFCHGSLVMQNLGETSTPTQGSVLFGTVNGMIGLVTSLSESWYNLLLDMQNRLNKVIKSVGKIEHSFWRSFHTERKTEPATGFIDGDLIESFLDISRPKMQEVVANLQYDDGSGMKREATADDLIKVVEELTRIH
IKZF2, sequence (Q9UKS7 whole entry): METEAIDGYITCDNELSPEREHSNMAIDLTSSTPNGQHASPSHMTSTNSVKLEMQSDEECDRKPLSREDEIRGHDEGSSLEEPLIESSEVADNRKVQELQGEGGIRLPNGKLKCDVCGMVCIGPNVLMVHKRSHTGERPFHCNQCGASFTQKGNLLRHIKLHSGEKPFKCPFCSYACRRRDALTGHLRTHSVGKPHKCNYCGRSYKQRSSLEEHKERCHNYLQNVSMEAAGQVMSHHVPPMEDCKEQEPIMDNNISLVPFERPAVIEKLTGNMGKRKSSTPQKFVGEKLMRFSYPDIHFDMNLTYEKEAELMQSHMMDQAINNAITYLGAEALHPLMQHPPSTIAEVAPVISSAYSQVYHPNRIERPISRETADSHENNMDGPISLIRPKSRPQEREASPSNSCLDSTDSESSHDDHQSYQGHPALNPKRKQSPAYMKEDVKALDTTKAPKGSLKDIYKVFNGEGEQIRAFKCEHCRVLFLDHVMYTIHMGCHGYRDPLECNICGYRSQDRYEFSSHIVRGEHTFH
IKZF2, sequence (Q96SW2 whole entry): as the sequence (Q96SW2 whole entry) above
IKZF2, sequence (Q16531 2-1140 partner): as the sequence (Q16531 2-1140 partner) above

The molecule `O=C1CCC(N2Cc3cc(-c4cc(CN5CCC5)c5[nH]ccc5n4)ccc3C2=O)C(=O)N1` (stereo not drawn) [Example 156, 3-(5-(7-(azetidin-1-ylmethyl)-1H-pyrrolo[3,2-b]pyridin-5-yl)-1-oxoisoindolin-2-yl) piperidine-2,6-dione] showed an IC50 on CRBN/DDB1 of 1000 to 5000 nM. Further, at IKZF2, the DC50 lay in the range of 1 to 10 nM and the Dmax was above 80%. At IKZF1, the DC50 lay within 10 to 100 nM and the Dmax was in the range of 20 to 40%.
`Cc1nc2nc(-c3ccc4c(c3)CN(C3CCC(=O)NC3=O)C4=O)cc(CN3CCCC3)c2o1` (stereo not drawn) [Example 194, 3-(5-(2-methyl-7-(pyrrolidin-1-ylmethyl)oxazolo[4,5-b]pyridin-5-yl)-1-oxoisoindolin-2-yl) piperidine-2,6-dione]: the IC50 on CRBN/DDB1 was 1000 to 5000 nM. In addition, the DC50 is 1 to 10 nM on IKZF2 and above 10000 nM at IKZF1. The Dmax was above 80% at IKZF2 and below 20% on IKZF1.
For `Cn1ccc2c(CN3CC4(CCC4)C3)cc(-c3ccc4c(c3)CN(C3CCC(=O)NC3=O)C4=O)nc21` (stereo not drawn) [Example 112, 3-(5-(4-((2-azaspiro[3.3]heptan-2-yl)methyl)-1-methyl-1H-pyrrolo[2,3-b]pyridin-6-yl)-1-oxoisoindolin-2-yl) piperidine-2,6-dione] the same measures were 100 to 500 nM, below 1 nM, 10 to 100 nM, above 80% and 20 to 40%.
On to `N#CCn1ccc2c(CN3CCCC3)cc(-c3ccc4c(c3)CN(C3CCC(=O)NC3=O)C4=O)nc21` (stereo not drawn) [Example 133, 2-(6-(2-(2,6-dioxopiperidin-3-yl)-1-oxoisoindolin-5-yl)-4-(pyrrolidin-1-ylmethyl)-1H-pyrrolo[2,3-b]pyridin-1-yl) acetonitrile], for which the IC50 at CRBN/DDB1 was in the range of 100 to 500 nM. In addition, at IKZF2, the DC50 is 1 to 10 nM and the Dmax lay in the range of 60 to 80%. Further, on IKZF1, the DC50 was above 10000 nM and the Dmax was below 20%.
Taken in the same sequence, the figures for `Cn1ccc2c(CN3CCc4ccccc4C3)cc(-c3ccc4c(c3)CN(C3CCC(=O)NC3=O)C4=O)nc21` (stereo not drawn) [Example 65, 3-(5-(4-((3,4-dihydroisoquinolin-2 (1H)-yl)methyl)-1-methyl-1H-pyrrolo[2,3-b]pyridin-6-yl)-1-oxoisoindolin-2-yl) piperidine-2,6-dione] were 100 to 500 nM, 1 to 10 nM, above 80%, above 10000 nM and 20 to 40%.
Taken in the same sequence, the figures for `CN1C2CCC1CN(Cc1cc(-c3ccc4c(c3)CN(C3CCC(=O)NC3=O)C4=O)nc3c1ccn3C)C2` (stereo not drawn) [Example 311, 3-(5-(1-methyl-4-((8-methyl-3,8-diazabicyclo[3.2.1]octan-3-yl)methyl)-1H-pyrrolo[2,3-b]pyridin-6-yl)-1-oxoisoindolin-2-yl) piperidine-2,6-dione] were 500 to 1000 nM, 1 to 10 nM, 60 to 80%, above 10000 nM and below 20%.
`Cn1ccc2nc(-c3ccc4c(c3)CN(C3CCC(=O)NC3=O)C4=O)cc(CN3CCC3)c21` (stereo not drawn) [Example 110, 3-(5-(7-(azetidin-1-ylmethyl)-1-methyl-1H-pyrrolo[3,2-b]pyridin-5-yl)-1-oxoisoindolin-2-yl) piperidine-2,6-dione] returned a half-maximal inhibitory concentration (IC50) at CRBN/DDB1 of 500 to 1000 nM. For the same molecule, the DC50 was 1 to 10 nM on IKZF2 and above 10000 nM at IKZF1. In addition, the Dmax was above 80% on IKZF2 and below 20% on IKZF1.
Taken in the same sequence, the figures for `O=C1CCC(N2Cc3cc(-c4cc(CN5CCCC5)c5cn(C6CCC6)nc5n4)ccc3C2=O)C(=O)N1` (stereo not drawn) [Example 316, 3-(5-(2-cyclobutyl-4-(pyrrolidin-1-ylmethyl)-2H-pyrazolo[3,4-b]pyridin-6-yl)-1-oxoisoindolin-2-yl) piperidine-2,6-dione] were 100 to 500 nM, 1 to 10 nM, 10 to 100 nM, above 80% and 20 to 40%.
With `O=C1CCC(N2Cc3cc(-c4cc(CN5CCCC5)c5c(ccn5C5CC5)n4)ccc3C2=O)C(=O)N1` (stereo not drawn) [Example 174, 3-(5-(1-cyclopropyl-7-(pyrrolidin-1-ylmethyl)-1H-pyrrolo[3,2-b]pyridin-5-yl)-1-oxoisoindolin-2-yl) piperidine-2,6-dione], at CRBN/DDB1, the IC50 fell in the range of 500 to 1000 nM. The DC50 is 1 to 10 nM at IKZF2 and 10 to 100 nM at IKZF1. Further, the Dmax lay within 60 to 80% on IKZF2 and 20 to 40% on IKZF1.
On to `O=C1CCC(N2Cc3cc(-c4cc(CN5CCCC5)c5ccccc5n4)ccc3C2=O)C(=O)N1` (stereo not drawn) [Example 78, 3-(1-oxo-5-(4-(pyrrolidin-1-ylmethyl)quinolin-2-yl)isoindolin-2-yl) piperidine-2,6-dione], for which the IC50 at CRBN/DDB1 is 500 to 1000 nM. In addition, the DC50 was below 1 nM at IKZF2 and above 10000 nM at IKZF1. For the same molecule, the Dmax on IKZF2 is above 80%; on IKZF1 it was 20 to 40%.
For `Cc1cc(-c2ccc3c(c2)CN(C2CCC(=O)NC2=O)C3=O)nc2c1CCN2CCO` (stereo not drawn) [Example 132, 3-(5-(1-(2-hydroxyethyl)-4-methyl-2,3-dihydro-1H-pyrrolo[2,3-b]pyridin-6-yl)-1-oxoisoindolin-2-yl) piperidine-2,6-dione] the same measures were 5000 to 10000 nM, 10 to 100 nM, above 10000 nM, 40 to 60% and below 20%.
`Cn1ncc2c(CN3CCCC3)cc(-c3ccc4c(c3)CN(C3CCC(=O)NC3=O)C4=O)nc21` (stereo not drawn) [Example 313, 3-(5-(1-methyl-4-(pyrrolidin-1-ylmethyl)-1H-pyrazolo[3,4-b]pyridin-6-yl)-1-oxoisoindolin-2-yl) piperidine-2,6-dione] displayed a half-inhibitory concentration (IC50) on CRBN/DDB1 of 1000 to 5000 nM. Moreover, the DC50 at IKZF2 was below 1 nM; on IKZF1 it was 10 to 100 nM. Moreover, the figures for the Dmax at IKZF2 and at IKZF1 were above 80% and 20 to 40%, respectively.
Regarding `COC1CCN(Cc2cc(-c3ccc4c(c3)CN(C3CCC(=O)NC3=O)C4=O)nc3c2ccn3C)C1` (stereo not drawn) [Example 93, 3-(5-(4-((3-methoxypyrrolidin-1-yl)methyl)-1-methyl-1H-pyrrolo[2,3-b]pyridin-6-yl)-1-oxoisoindolin-2-yl) piperidine-2,6-dione], on CRBN/DDB1, the IC50 lay in the range of 100 to 500 nM. In addition, at IKZF2, the DC50 is below 1 nM and the Dmax is above 80%. Moreover, at IKZF1, the DC50 lay within 10 to 100 nM and the Dmax was 20 to 40%.
`O=C1CCC(N2Cc3cc(-c4cc(CN5CCCC5)c5cn(C6COC6)nc5n4)ccc3C2=O)C(=O)N1` (stereo not drawn) [Example 317, 3-(5-(2-(oxetan-3-yl)-4-(pyrrolidin-1-ylmethyl)-2H-pyrazolo[3,4-b]pyridin-6-yl)-1-oxoisoindolin-2-yl) piperidine-2,6-dione] yielded an IC50 at CRBN/DDB1 of 100 to 500 nM. At IKZF2, the DC50 lay in the range of 1 to 10 nM and the Dmax lay in the range of 60 to 80%. On IKZF1, the DC50 was above 10000 nM and the Dmax is below 20%.
For `O=C1CCC(N2Cc3cc(-c4cc(CN5CCC(CO)CC5)c5ccn(C6CC6)c5n4)ccc3C2=O)C(=O)N1` (stereo not drawn) [Example 144, 3-(5-(1-cyclopropyl-4-((4-(hydroxymethyl)piperidin-1-yl)methyl)-1H-pyrrolo[2,3-b]pyridin-6-yl)-1-oxoisoindolin-2-yl) piperidine-2,6-dione] the same measures were 100 to 500 nM, 1 to 10 nM, above 80%, 10 to 100 nM and 20 to 40%.

A word on the IC50: it is the concentration that gives 50% inhibition.
